From article PMC8269116 (Journal of psychopharmacology (Oxford, England), 2019)
“And” between values parts separate entries of the source, which are not always exact repeats. Identical values can stand only once.

Biological target: T1, DAT (Homo sapiens, UniProt Q01959)
Assay: [3H]dopamine uptake inhibition in HEK 293 cells overexpressing human DAT
Format: cell-based
Conditions: partial inhibition of dopamine uptake

T1 sequence (Q01959 whole entry): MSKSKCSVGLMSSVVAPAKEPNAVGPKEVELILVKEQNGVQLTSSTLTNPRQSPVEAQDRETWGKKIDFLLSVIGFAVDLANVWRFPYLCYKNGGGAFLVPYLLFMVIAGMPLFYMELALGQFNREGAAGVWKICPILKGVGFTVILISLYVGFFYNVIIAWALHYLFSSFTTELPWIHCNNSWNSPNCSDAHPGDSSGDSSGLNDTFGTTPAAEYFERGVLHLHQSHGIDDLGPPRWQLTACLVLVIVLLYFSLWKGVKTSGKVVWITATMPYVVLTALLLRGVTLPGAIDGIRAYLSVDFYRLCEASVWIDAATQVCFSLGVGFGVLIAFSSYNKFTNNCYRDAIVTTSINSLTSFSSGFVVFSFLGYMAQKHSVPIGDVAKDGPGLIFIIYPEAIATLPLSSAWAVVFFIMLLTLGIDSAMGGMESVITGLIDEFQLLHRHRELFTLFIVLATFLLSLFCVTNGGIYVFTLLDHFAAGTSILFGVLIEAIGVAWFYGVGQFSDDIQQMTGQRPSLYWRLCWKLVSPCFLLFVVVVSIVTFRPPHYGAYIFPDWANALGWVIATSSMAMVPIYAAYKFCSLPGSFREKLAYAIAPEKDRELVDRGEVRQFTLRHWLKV

SMILES	maximum dopamine transporter inhibition [%]
CNC(C)C(=O)c1ccc(O)c(OC)c1 (stereo not shown) [HMMC, 4-hydroxy-3-methyoxymethcathinone]	26

Biological target: human 5-HT transporter (SERT) (Homo sapiens, UniProt P31645)
Sequence (P31645 whole entry): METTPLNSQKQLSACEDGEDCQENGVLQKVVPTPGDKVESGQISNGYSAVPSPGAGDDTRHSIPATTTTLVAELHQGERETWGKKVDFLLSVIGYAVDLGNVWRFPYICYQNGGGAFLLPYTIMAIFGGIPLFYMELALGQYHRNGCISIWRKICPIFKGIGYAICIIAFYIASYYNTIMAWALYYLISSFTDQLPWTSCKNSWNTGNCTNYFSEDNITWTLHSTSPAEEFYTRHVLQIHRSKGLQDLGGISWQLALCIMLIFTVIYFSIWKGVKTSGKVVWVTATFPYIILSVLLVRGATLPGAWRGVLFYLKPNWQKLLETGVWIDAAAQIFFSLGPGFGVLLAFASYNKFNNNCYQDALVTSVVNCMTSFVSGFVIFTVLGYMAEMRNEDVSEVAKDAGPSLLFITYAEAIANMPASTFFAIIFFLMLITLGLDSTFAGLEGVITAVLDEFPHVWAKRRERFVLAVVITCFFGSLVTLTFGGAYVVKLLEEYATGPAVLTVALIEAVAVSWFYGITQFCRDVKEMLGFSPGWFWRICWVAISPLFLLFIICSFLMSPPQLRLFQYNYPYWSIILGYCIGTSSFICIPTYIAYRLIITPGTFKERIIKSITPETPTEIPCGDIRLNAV
Assay: [3H]5-HT uptake inhibition in HEK 293 cells overexpressing human SERT
Format: cell-based
Conditions: read-out: SERT IC50; 5-HT uptake inhibition; mean and 95% confidence interval

SMILES	IC50 [µM]
CCCC(C(=O)c1ccc(O)c(O)c1)N1CCCC1 (stereo not shown) [HHPV, 3,4-dihydroxypyrovalerone]	> 100
CCCC(C(=O)c1ccc(O)c(OC)c1)N1CCCC1 (stereo not shown) [HMPV, 4-hydroxy-3-methyoxypyrovalerone]	> 100
CNC(C)C(=O)c1ccc(O)c(OC)c1 (stereo not shown) [HMMC, 4-hydroxy-3-methyoxymethcathinone]	> 100

Biological target: NET (Homo sapiens, UniProt P23975)
Sequence (P23975 whole entry): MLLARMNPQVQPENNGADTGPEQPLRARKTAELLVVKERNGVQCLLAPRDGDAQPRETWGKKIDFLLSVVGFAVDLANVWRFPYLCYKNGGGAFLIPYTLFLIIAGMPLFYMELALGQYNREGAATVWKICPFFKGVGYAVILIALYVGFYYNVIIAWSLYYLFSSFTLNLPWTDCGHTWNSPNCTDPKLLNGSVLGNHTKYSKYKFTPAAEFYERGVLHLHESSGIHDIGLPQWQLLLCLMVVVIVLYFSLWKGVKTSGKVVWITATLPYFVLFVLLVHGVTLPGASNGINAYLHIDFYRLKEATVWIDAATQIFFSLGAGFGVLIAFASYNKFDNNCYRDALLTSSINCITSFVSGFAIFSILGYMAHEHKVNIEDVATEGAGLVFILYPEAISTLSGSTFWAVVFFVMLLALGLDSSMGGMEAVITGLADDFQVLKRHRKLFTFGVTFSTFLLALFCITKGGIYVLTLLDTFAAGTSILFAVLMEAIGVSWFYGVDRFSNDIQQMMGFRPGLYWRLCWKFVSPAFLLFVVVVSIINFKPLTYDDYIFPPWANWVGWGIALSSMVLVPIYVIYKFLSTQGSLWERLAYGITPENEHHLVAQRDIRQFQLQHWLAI
Assay: Radioligand binding, N-methyl-[3H]nisoxetine displacement
Conditions: read-out: NET Ki; mean±SD, n=3

SMILES	Ki
CCCC(C(=O)c1ccc(O)c(O)c1)N1CCCC1 (stereo not shown) [HHPV, 3,4-dihydroxypyrovalerone]	0.11 ± 0.01 µM
CCCC(C(=O)c1ccc(O)c(OC)c1)N1CCCC1 (stereo not shown) [HMPV, 4-hydroxy-3-methyoxypyrovalerone]	6.2 ± 0.7 µM
CNC(C)C(=O)c1ccc(O)c(OC)c1 (stereo not shown) [HMMC, 4-hydroxy-3-methyoxymethcathinone]	4 µM and 4.2 µM

Biological target: T1, DAT
Assay: Radioligand binding, [3H]WIN35,428 displacement
Conditions: read-out: DAT Ki; mean±SD, n=3

SMILES	Ki
CCCC(C(=O)c1ccc(O)c(O)c1)N1CCCC1 (stereo not shown) [HHPV, 3,4-dihydroxypyrovalerone]	0.02 µM and 0.023 µM
CCCC(C(=O)c1ccc(O)c(OC)c1)N1CCCC1 (stereo not shown) [HMPV, 4-hydroxy-3-methyoxypyrovalerone]	2 ± 0.2 µM
CNC(C)C(=O)c1ccc(O)c(OC)c1 (stereo not shown) [HMMC, 4-hydroxy-3-methyoxymethcathinone]	> 8.5 µM

Biological target: SERT (Homo sapiens, UniProt P31645)
Sequence (P31645 whole entry): as the sequence (P31645 whole entry) above
Assay: Radioligand binding, [3H]citalopram displacement
Conditions: read-out: SERT Ki; mean±SD, n=3

SMILES	Ki [µM]
CCCC(C(=O)c1ccc(O)c(O)c1)N1CCCC1 (stereo not shown) [HHPV, 3,4-dihydroxypyrovalerone]	> 7.4
CCCC(C(=O)c1ccc(O)c(OC)c1)N1CCCC1 (stereo not shown) [HMPV, 4-hydroxy-3-methyoxypyrovalerone]	> 7.4
CNC(C)C(=O)c1ccc(O)c(OC)c1 (stereo not shown) [HMMC, 4-hydroxy-3-methyoxymethcathinone]	> 7.4

Biological target: dopamine D2 receptors (Homo sapiens, UniProt P14416)
Sequence (P14416 whole entry): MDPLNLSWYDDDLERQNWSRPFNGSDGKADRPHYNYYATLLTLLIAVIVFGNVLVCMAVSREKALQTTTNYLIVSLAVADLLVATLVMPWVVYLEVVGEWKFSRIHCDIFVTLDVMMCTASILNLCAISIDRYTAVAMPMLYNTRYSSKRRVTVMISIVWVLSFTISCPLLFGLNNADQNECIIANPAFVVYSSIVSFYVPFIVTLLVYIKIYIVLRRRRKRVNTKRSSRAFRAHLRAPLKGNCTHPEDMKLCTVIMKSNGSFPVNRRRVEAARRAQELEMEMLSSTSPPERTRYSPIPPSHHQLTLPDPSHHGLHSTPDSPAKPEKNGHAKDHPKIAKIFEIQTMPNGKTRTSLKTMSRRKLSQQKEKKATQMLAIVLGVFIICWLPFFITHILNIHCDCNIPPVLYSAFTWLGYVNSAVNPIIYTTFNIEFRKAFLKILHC
Assay: Radioligand binding, [3H]spiperone displacement
Conditions: read-out: D2 Ki; mean±SD, n=3

SMILES	Ki [µM]
CCCC(C(=O)c1ccc(O)c(O)c1)N1CCCC1 (stereo not shown) [HHPV, 3,4-dihydroxypyrovalerone]	> 13
CCCC(C(=O)c1ccc(O)c(OC)c1)N1CCCC1 (stereo not shown) [HMPV, 4-hydroxy-3-methyoxypyrovalerone]	> 13
CNC(C)C(=O)c1ccc(O)c(OC)c1 (stereo not shown) [HMMC, 4-hydroxy-3-methyoxymethcathinone]	> 13

Biological target: T2, α1 adrenergic receptor (α1A) (Homo sapiens, UniProt P35348)
T2 sequence (P35348 1-466): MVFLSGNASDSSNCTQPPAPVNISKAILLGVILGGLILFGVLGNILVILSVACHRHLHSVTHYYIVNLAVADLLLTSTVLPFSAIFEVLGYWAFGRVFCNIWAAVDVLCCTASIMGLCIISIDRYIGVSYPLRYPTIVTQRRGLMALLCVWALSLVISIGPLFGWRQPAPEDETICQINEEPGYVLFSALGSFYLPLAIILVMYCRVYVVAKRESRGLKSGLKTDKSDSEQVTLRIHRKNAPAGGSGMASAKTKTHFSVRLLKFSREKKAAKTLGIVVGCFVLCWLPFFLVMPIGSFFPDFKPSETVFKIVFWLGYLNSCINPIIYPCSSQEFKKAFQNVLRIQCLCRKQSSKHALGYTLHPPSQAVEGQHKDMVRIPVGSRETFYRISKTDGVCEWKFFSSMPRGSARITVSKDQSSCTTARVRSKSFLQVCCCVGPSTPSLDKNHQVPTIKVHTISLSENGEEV
Assay: Radioligand binding, [3H]prazosin displacement
Conditions: read-out: α1A Ki; mean±SD, n=3

SMILES	Ki [µM]
CCCC(C(=O)c1ccc(O)c(O)c1)N1CCCC1 (stereo not shown) [HHPV, 3,4-dihydroxypyrovalerone]	> 9.5
CCCC(C(=O)c1ccc(O)c(OC)c1)N1CCCC1 (stereo not shown) [HMPV, 4-hydroxy-3-methyoxypyrovalerone]	> 9.5
CNC(C)C(=O)c1ccc(O)c(OC)c1 (stereo not shown) [HMMC, 4-hydroxy-3-methyoxymethcathinone]	> 9.5

Biological target: T3, α2 adrenergic receptor (α2A) (Homo sapiens, UniProt P08913)
T3 sequence (P08913 1-465): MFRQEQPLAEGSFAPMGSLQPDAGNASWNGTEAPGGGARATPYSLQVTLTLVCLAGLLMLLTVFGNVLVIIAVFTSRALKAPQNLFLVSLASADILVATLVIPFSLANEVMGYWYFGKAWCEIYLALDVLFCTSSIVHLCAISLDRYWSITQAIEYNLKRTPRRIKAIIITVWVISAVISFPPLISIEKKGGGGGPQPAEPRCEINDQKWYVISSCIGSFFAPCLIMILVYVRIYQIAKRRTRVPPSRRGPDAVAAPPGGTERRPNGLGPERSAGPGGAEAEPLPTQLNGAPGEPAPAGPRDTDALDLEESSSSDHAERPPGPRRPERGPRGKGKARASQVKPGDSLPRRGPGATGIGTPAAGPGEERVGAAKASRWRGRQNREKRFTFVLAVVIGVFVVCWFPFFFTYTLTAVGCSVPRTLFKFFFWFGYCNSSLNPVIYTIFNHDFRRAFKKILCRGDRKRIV
Assay: Radioligand binding, [3H]rauwolscine displacement
Conditions: read-out: α2A Ki; mean±SD, n=3

SMILES	Ki [µM]
CCCC(C(=O)c1ccc(O)c(O)c1)N1CCCC1 (stereo not shown) [HHPV, 3,4-dihydroxypyrovalerone]	> 4.7
CCCC(C(=O)c1ccc(O)c(OC)c1)N1CCCC1 (stereo not shown) [HMPV, 4-hydroxy-3-methyoxypyrovalerone]	> 4.7
CNC(C)C(=O)c1ccc(O)c(OC)c1 (stereo not shown) [HMMC, 4-hydroxy-3-methyoxymethcathinone]	> 4.7

Biological target: T4, 5-HT1A receptor (Homo sapiens, UniProt P08908)
T4 sequence (P08908 1-422): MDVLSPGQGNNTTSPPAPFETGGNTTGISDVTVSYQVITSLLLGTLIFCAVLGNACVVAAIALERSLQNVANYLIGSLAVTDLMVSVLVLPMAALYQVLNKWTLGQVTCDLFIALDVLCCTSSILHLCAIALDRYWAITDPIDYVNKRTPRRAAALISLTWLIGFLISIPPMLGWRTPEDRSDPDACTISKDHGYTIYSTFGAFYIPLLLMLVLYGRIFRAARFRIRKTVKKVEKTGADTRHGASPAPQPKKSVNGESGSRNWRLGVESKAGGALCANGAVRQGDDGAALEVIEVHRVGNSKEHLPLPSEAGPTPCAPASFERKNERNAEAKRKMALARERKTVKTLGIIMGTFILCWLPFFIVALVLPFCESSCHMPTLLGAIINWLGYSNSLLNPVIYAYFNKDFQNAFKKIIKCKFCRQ
Assay: Radioligand binding, [3H]8-hydroxy-2-
Conditions: read-out: 5-HT1A Ki; mean±SD, n=3

SMILES	Ki [µM]
CCCC(C(=O)c1ccc(O)c(O)c1)N1CCCC1 (stereo not shown) [HHPV, 3,4-dihydroxypyrovalerone]	4.3 ± 1.6
CCCC(C(=O)c1ccc(O)c(OC)c1)N1CCCC1 (stereo not shown) [HMPV, 4-hydroxy-3-methyoxypyrovalerone]	> 17
CNC(C)C(=O)c1ccc(O)c(OC)c1 (stereo not shown) [HMMC, 4-hydroxy-3-methyoxymethcathinone]	> 18

Biological target: 5-HT2A receptor (Homo sapiens, UniProt P28223)
Sequence (P28223 whole entry): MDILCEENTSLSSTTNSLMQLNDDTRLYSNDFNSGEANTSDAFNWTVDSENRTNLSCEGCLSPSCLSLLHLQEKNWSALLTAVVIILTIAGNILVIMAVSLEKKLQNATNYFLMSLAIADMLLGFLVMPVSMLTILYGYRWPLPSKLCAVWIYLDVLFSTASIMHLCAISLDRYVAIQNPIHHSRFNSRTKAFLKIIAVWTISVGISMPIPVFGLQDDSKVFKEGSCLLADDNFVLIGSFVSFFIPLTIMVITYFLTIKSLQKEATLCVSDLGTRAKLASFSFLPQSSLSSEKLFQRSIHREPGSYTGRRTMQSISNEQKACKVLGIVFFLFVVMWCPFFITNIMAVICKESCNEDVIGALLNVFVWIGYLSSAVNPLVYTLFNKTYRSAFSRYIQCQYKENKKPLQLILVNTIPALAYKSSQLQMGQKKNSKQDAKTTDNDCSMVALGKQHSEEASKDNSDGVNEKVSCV
Assay: Radioligand binding, [3H]ketanserin displacement
Conditions: read-out: 5-HT2A Ki; mean±SD, n=3

SMILES	Ki [µM]
CCCC(C(=O)c1ccc(O)c(O)c1)N1CCCC1 (stereo not shown) [HHPV, 3,4-dihydroxypyrovalerone]	> 12
CCCC(C(=O)c1ccc(O)c(OC)c1)N1CCCC1 (stereo not shown) [HMPV, 4-hydroxy-3-methyoxypyrovalerone]	> 12
CNC(C)C(=O)c1ccc(O)c(OC)c1 (stereo not shown) [HMMC, 4-hydroxy-3-methyoxymethcathinone]	> 12

Biological target: T5, 5-HT2C receptor (Homo sapiens, UniProt P28335)
T5 sequence (P28335 33-458): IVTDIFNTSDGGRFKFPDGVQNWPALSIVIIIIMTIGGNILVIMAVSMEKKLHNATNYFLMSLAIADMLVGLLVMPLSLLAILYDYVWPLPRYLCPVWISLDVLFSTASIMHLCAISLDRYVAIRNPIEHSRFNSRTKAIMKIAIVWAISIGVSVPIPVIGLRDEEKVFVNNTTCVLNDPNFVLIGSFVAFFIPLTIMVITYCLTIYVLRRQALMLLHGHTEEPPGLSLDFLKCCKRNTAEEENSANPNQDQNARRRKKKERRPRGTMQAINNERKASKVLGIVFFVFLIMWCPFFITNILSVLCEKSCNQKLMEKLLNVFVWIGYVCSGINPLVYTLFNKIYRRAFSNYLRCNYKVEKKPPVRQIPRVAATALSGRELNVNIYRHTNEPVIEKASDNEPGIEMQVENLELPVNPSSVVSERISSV
Assay: biochemical
Format: binding
Conditions: read-out: 5-HT2c Ki; mean±SD, n=3

SMILES	Ki [µM]
CCCC(C(=O)c1ccc(O)c(O)c1)N1CCCC1 (stereo not shown) [HHPV, 3,4-dihydroxypyrovalerone]	> 5.1
CCCC(C(=O)c1ccc(O)c(OC)c1)N1CCCC1 (stereo not shown) [HMPV, 4-hydroxy-3-methyoxypyrovalerone]	> 5.1
CNC(C)C(=O)c1ccc(O)c(OC)c1 (stereo not shown) [HMMC, 4-hydroxy-3-methyoxymethcathinone]	> 5.1

Biological target: rat TAAR1 (Rattus norvegicus, UniProt Q923Y9)
Sequence (Q923Y9 whole entry): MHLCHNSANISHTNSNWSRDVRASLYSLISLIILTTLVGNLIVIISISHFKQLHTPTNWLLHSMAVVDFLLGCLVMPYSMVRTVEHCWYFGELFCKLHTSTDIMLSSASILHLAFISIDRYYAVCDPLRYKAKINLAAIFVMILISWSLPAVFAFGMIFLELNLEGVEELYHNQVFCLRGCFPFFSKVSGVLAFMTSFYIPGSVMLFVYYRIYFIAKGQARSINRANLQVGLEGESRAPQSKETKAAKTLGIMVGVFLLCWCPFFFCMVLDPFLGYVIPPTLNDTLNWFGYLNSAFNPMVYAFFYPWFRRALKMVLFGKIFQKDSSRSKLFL
Assay: Radioligand binding, [3H]RO5166017 displacement
Conditions: read-out: TAAR1rat Ki; mean±SD, n=3

SMILES	Ki [µM]
CCCC(C(=O)c1ccc(O)c(O)c1)N1CCCC1 (stereo not shown) [HHPV, 3,4-dihydroxypyrovalerone]	> 5.2
CCCC(C(=O)c1ccc(O)c(OC)c1)N1CCCC1 (stereo not shown) [HMPV, 4-hydroxy-3-methyoxypyrovalerone]	> 5.2
CNC(C)C(=O)c1ccc(O)c(OC)c1 (stereo not shown) [HMMC, 4-hydroxy-3-methyoxymethcathinone]	> 5.2

Biological target: mouse TAAR1 (Mus musculus, UniProt Q923Y8)
Sequence (Q923Y8 whole entry): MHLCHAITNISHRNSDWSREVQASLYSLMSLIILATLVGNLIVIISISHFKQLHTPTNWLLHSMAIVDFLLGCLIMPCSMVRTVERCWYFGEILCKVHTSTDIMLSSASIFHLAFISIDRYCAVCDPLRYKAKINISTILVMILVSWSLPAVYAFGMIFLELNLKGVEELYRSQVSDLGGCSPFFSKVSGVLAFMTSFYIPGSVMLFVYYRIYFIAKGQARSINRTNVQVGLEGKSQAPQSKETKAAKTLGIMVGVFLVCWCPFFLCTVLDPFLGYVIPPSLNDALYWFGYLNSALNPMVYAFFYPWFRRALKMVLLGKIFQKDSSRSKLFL
Assay: Radioligand binding, [3H]RO5166017 displacement
Conditions: read-out: TAAR1mouse Ki; mean±SD, n=3

SMILES	Ki [µM]
CCCC(C(=O)c1ccc(O)c(O)c1)N1CCCC1 (stereo not shown) [HHPV, 3,4-dihydroxypyrovalerone]	> 4.4
CCCC(C(=O)c1ccc(O)c(OC)c1)N1CCCC1 (stereo not shown) [HMPV, 4-hydroxy-3-methyoxypyrovalerone]	> 4.4
CNC(C)C(=O)c1ccc(O)c(OC)c1 (stereo not shown) [HMMC, 4-hydroxy-3-methyoxymethcathinone]	> 4.4

System: not given
Assay: not given
Conditions: rats, subcutaneous 0.5–2 mg/kg MDPV; ref Anizan et al., 2016; cited from earlier work

SMILES	maximal concentration as % of the parent compound MDPV
CCCC(C(=O)c1ccc(O)c(O)c1)N1CCCC1 (stereo not shown) [HHPV, 3,4-dihydroxypyrovalerone]	12–19%
CCCC(C(=O)c1ccc(O)c(OC)c1)N1CCCC1 (stereo not shown) [HMPV, 4-hydroxy-3-methyoxypyrovalerone]	53–61%

Same assay, conditions: rats, subcutaneous injections of 0.5–2 mg/kg MDPV; ref Anizan et al., 2016; cited from earlier work

SMILES	Tmax [h]
CCCC(C(=O)c1ccc(O)c(O)c1)N1CCCC1 (stereo not shown) [HHPV, 3,4-dihydroxypyrovalerone]	3.43 to 4.28
CCCC(C(=O)c1ccc(O)c(OC)c1)N1CCCC1 (stereo not shown) [HMPV, 4-hydroxy-3-methyoxypyrovalerone]	3.15 to 3.43

System: not given
Assay: not given
Conditions: rat plasma, subcutaneous injections of methylone; ref Elmore et al., 2017; cited from earlier work

SMILES	amount in plasma as % of parent compound methylone
CNC(C)C(=O)c1ccc(O)c(OC)c1 (stereo not shown) [HMMC, 4-hydroxy-3-methyoxymethcathinone]	12–22%

Same assay, conditions: rat plasma, subcutaneous methylone; ref Elmore et al., 2017; cited from earlier work

SMILES	time at which Cmax was reached [min]
CNC(C)C(=O)c1ccc(O)c(OC)c1 (stereo not shown) [HMMC, 4-hydroxy-3-methyoxymethcathinone]	90 to 120
